Measurements published in paper PMC3556473, “Absorption, metabolism and excretion of [^14C]pomalidomide in humans following oral administration” (Cancer Chemotherapy and Pharmacology, 2012).
“And” between values parts separate entries of the source, which are not always exact repeats. Identical values can stand only once. Like-named read-outs stand apart in the source and are kept apart here.

What was measured:
OPM-2 MM cell = experiment: Inhibition of MM cell proliferation ([3H]-thymidine incorporation, 3-day culture); assay type: cell-based; details: Homo sapiens
Method: (§1) Metabolites and hydrolysis products of pomalidomide were tested for pharmacological activity in the following three assay systems: (1) inhibition of MM cell proliferation, (2) enhancement of primary human T cell IL-2 production and (3) inhibition of TNF-α production by lipopolysaccharide (LPS)-stimulated human peripheral blood mononuclear cells (PBMC). For all three assay types, compounds were dissolved in 100 % dimethyl sulfoxide (DMSO) and diluted into complete cell culture medium, consisting of Roswell Park Memorial Institute (RPMI)-1640 plus penicillin, streptomycin and L-glutamine (Mediatech, Manassas, VA). The MM cell proliferation cell culture medium contained 10 % fetal bovine serum, while the primary human cell cultures contained 10 % human AB serum (Invitrogen, Brown Deer, WI). The final DMSO concentration in the cell culture media was 0.25 %.
(§2) The human MM cell line OPM-2 was obtained from DSMZ (Braunschweig, Germany), and human MM cell lines U266 B1 and NCI-H929 were obtained from ATCC (Manassas, VA). Inhibition of MM cell proliferation was assessed by the [^3H]-thymidine incorporation assay in a 3-day culture in the presence of compounds in complete medium, as previously described. Primary human T cells were isolated from PBMC by negative selection using the RosetteSep T Cell Enrichment Cocktail (STEMCELL Technologies, Tukwila, WA) according to the manufacturer’s procedures. Costimulation of T cell IL-2 production was measured in a 2-day culture of primary human T cells isolated from healthy donors stimulated with anti-CD3 antibody in the presence of compounds, as previously described. Inhibition of TNF-α production by LPS-stimulated human PBMC was measured in a 1-day culture in the presence of compound, as previously described.

U266 MM cell = experiment: as above; assay type: cell-based; details: Homo sapiens, U-266
Method: as §1, §2

H929 MM cell = experiment: as above; assay type: cell-based; details: Homo sapiens, NCI-H929
Method: as §1, §2

T cell IL-2 production = experiment: Enhancement of primary human T cell IL-2 production (anti-CD3 stimulated, 2-day culture); assay type: cell-based; details: 48 h, anti-CD3 stimulated primary human T cells
Method: as §1, §2

PBMC TNF-α production = experiment: Inhibition of TNF-α production by LPS-stimulated human PBMC (1-day culture); assay type: cell-based; details: 24 h
Method: as §1, §2

[1] = Metabolite profiling of urine and feces (% of dose excreted); assay type: in vivo, human; design: key to % of dose excreted, Feces / % of dose excreted, Urine: ND: not detected; D: detected by MS, but at concentrations too low to accurately quantify by radiochromatography; details: radiochromatography; for % of dose excreted, Urine: pooled urine 0–72 h; for % of dose excreted, Feces: pooled feces 0–96 h
Method: For each subject, urine samples were pooled using an equal percentage by volume of the 0–6, 6–12, 12–24, 24–48 and 48–72 h samples. Pools of the 0–6, 6–12, 12–24, 24–48 and 48-72 h collections were also prepared across subjects and analyzed for metabolite profiling. Samples were mixed and centrifuged prior to the supernatants being transferred to fresh tubes for metabolite profiling analysis.
For each subject, fecal homogenates for metabolite profiling were pooled using an equal percentage by weight of the 0–24, 24–48, 48–72 and 72–96 h samples. Pools of the 0–24, 24-48, 48–72 and 72–96 h collections were also prepared across subjects and analyzed for metabolite profiling. An aliquot of each pool was extracted with acetonitrile; samples were mixed and centrifuged. The supernatant was removed and the pellets re-suspended with 0.1 % formic acid and extracted with acetonitrile. The combined supernatants were evaporated to dryness under a stream of nitrogen and the residue re-suspended in methanol:0.1 % formic acid in water (1:1). Samples were assayed for extraction recovery prior to metabolite profiling. A control fecal homogenate spiked with [^14C]pomalidomide was extracted in a similar manner to determine the extraction efficiency and stability of [^14C]pomalidomide.
(§3) HPLC analysis for metabolite profiling (HPLC Method 1) was performed using a Waters 2695 Alliance Separation Module (Waters Corp., Milford, MA) with the autosampler set to 4 °C. [^14C]Pomalidomide and metabolites were separated using an ACE C18 column (150 × 4.6 mm, 3 μm; Advanced Chromatography Technologies, Aberdeen, Scotland) equipped with an ACE C18 guard column (10 × 3 mm, 3 μm). The mobile phases used were 25 mM ammonium acetate in water: pH 5.5 with formic acid (mobile phase A) and methanol (mobile phase B). The column temperature was 30 °C, and the flow rate was 0.7 mL/min. The linear gradient was delivered as follows: 0–2 min 100 % A; 2–38 min to 64 % A; 38–44 min to 0 % A; 44–48 min hold at 0 % A; return to initial conditions over 2 min.
(§4) Radioactivity profiles for plasma and excreta were determined by collecting the column eluate into 96-well Deepwell LumaPlates™ at a rate of 0.25 min/fraction. The plates were dried and the radioactivity in each well determined using a PerkinElmer TopCount® NXT™ Microplate Scintillation Counter. HPLC radiochromatograms were reconstructed using LC-ARC data handling software.

[2] = Plasma pharmacokinetics of pomalidomide and circulating metabolites by radiochromatography (metabolite profiling); assay type: in vivo, human; design: key to Plasma (% AUC relative to TRA): ND: not detected; D: detected by MS, but at concentrations too low to accurately quantify by radiochromatography; AUC0–24 / AUC0−∞: concentration or dose not given beside the values; details: for Plasma (% AUC relative to TRA): AUC0–24 (unchanged drug or metabolite)/AUC0–24 (TRA) * 100 %; for AUC/AUCTRA: plasma exposure relative to total radioactivity
Method: Individual plasma samples collected from all subjects at 1, 2.5, 4, 6, 10, 12 and 24 h post-dose were analyzed for metabolite profiling. Samples were extracted with acetonitrile, the supernatant was removed, and the pellet was washed with 0.1 % formic acid in water and extracted again with acetonitrile. The combined supernatants were adjusted to 15 or 25 mL by adding acetonitrile then evaporated to dryness under a stream of nitrogen. The residues were re-suspended in 0.1 % formic acid in water, assayed for extraction recovery and analyzed for metabolite profiling. A control plasma sample spiked with [^14C]pomalidomide was extracted in a similar manner to determine the extraction efficiency and stability of [^14C]pomalidomide.
as §3, §4
For pomalidomide and metabolite concentrations in plasma based on metabolite profiling data, pharmacokinetic data were generated by non-compartmental analysis of plasma versus time profiles using WinNonlin (version 4.1, Enterprise Edition).

[3] = Plasma pharmacokinetics of pomalidomide and its enantiomers (chiral LC–MS/MS) after a single oral 2 mg dose of [14C]pomalidomide; assay type: in vivo, human; details: for C max: healthy male subjects; for C max / AUC0−t / AUC0−∞ / t ½: mean ± SD (n = 8); for T max: median (min–max)
Description: This was an open-label, in-patient, single-dose study in eight non-smoking healthy male adult volunteers conducted in accordance with Good Clinical Practices (GCP) and in compliance with the Declaration of Helsinki. The protocol and consent form were reviewed and approved by the appropriate institutional review board, and all study participants gave written informed consent, before initiation of any study-related procedure. Male subjects were eligible based on standard inclusion/exclusion criteria and were excluded if they had exposure to excess radiation or participated in a study involving radioisotopes within the previous 12 months. Subjects entered the study center on the day prior to dosing and remained at the center for up to 15 days following dosing or until the total radioactivity recovered in excreta was ≥90 % or the radioactivity recovered in excreta per day on three consecutive days was ≤1 % of the administered radioactive dose.
Each subject was administered a single oral suspension of 2 mg (100 μCi) of [^14C]pomalidomide in seltzer water (75 mL) followed by administration of an additional 140 mL of distilled water. Subjects were fasted for 8 h prior to and 4 h following dose administration. The residual radioactivity in the dosing vials was determined, and for six of the eight subjects (subjects 1–4, 6 and 8), the administered dose (1.93–2.02 mg) was close to the target dose of 2 mg. For subjects 5 and 7, a significant amount of radioactivity remained in the dose vial, resulting in administered doses of 1.59 and 1.51 mg, respectively. Calculations for percent of dose recovered in excreta were based on the actual administered doses.
Blood was collected into pre-chilled K3EDTA tubes at pre-dose, 0.5, 1, 1.5, 2, 2.5, 3, 4, 6, 8, 10, 12, 24, 48, 72, 120 and 168 h following dose administration. Blood for radioactivity counting was transferred to a clean tube and stored at or below 4 °C until analyzed. Plasma was harvested by centrifugation from the remaining blood. A plasma sample for radioactivity counting was transferred to a fresh tube. Three plasma aliquots were transferred to tubes containing citric acid for metabolite profiling and for determination of pomalidomide enantiomer concentrations in plasma. Urine was collected pre-dose, 0–6, 6-12, 12–24 and every 24 h thereafter up to 216 h (9 days) following dose administration and were stabilized with one volume of pH 1.5 Sorensen’s citrate buffer (25 mM sodium citrate buffer adjusted to pH 1.5). During the 12- to 24-h collection interval for subject 4, approximately 550 mL of urine was inadvertently poured into the wrong collection urinal and the sample was lost. […] Individual fecal samples were collected pre-dose and for up to 9 days following dose administration, and homogenized using approximately three volumes by weight of pH 1.5 Sorensen’s citrate buffer. All urine, fecal homogenates and plasma samples were stored at or below −20 °C until analyzed.
Plasma concentrations of each pomalidomide enantiomer were determined using a chiral LC–MS/MS assay. The pomalidomide enantiomers and ^13C-labeled pomalidomide (internal standard; IS) were extracted from plasma (stabilized with citric acid) using liquid–liquid extraction with methyl tertiary butyl ether. After transfer to a new tube, the solvent was evaporated, and the samples were reconstituted and injected for LC–MS/MS analysis using a Chiral AGP (50 × 3.0 mm, 5 μm; Chrom Tech, Inc., Apple Valley, MN) analytical column. Positive ions were measured in the multiple reaction monitoring (MRM) mode using a Sciex API-4000 tandem mass spectrometer equipped with a Turbo Ion Spray source. For the QC samples, the accuracy ranged from 91.0 to 106.9 %. For study samples, the amount of [^14C]-labeled material was accounted for when calculating the concentration of enantiomers in plasma using an appropriate correction factor. […]

[4] = cited from earlier work
[5] = plasma, radiochromatography, geometric mean (%CV)
[6] = plasma, radiochromatography, median and range
[7] = lenalidomide, listed as lenalidomide

SMILES	IC50 (OPM-2 MM cell) [nM]	IC50 (U266 MM cell) [nM]	IC50 (H929 MM cell) [nM]	EC50 (T cell IL-2 production) [nM]	IC50 (PBMC TNF-α production) [nM]	% of dose excreted, Urine [1]	Plasma (% AUC relative to TRA) [2]	AUC/AUCTRA [2] [%]	AUC0–24 [2, 5]	AUC0−∞ [2, 5]	C max [2, 5]	further results
Nc1cccc2c1C(=O)N(C1CC(O)C(=O)NC1=O)C2=O (stereo not drawn) [Metabolite M19]	> 1000	> 1000	> 1000	1500	2300	D	D	–	–	–	–	–
CC(=O)Nc1cccc2c1C(=O)N(C1CCC(=O)NC1=O)C2=O (stereo not drawn) [Metabolite M18, N-acetyl pomalidomide]	> 1000	> 1000	> 1000	> 10000	> 10000	0.1%	D	–	–	–	–	% of dose excreted, Feces [1]: D
Nc1cccc2c1C(=O)N([C@@H]1CCC(=O)NC1=O)C2=O (single isomer, unassigned) [R-enantiomer]	–	–	–	–	–	–	–	–	–	–	–	C max [3]: 6.36 ± 2.08 ng/mL; AUC0−t [3]: 67.7 ± 33.8 ng·h/mL; AUC0−∞ [3]: 95.1 ± 46.1 ng·h/mL; t ½ [3]: 9.5 ± 3.2 h; T max [3]: 3.0 (2.5–6.0) h
NC(=O)C(CCC(=O)O)N1C(=O)c2cccc(N)c2C1=O (stereo not drawn) [Metabolite M10]	> 1000	> 1000	> 1000	720	> 10000	1.5%	–	–	–	–	–	% of dose excreted, Feces [1]: 0.3%
Nc1c(O[C@@H]2O[C@H](C(=O)O)[C@@H](O)[C@H](O)[C@H]2O)ccc2c1C(=O)N(C1CCC(=O)NC1=O)C2=O (stereo partly drawn) [Metabolite M13]	–	–	–	–	–	12% and 12.4%	2.0%	1.99	3.86 (54.0) ngEq*h/mL	5.99 (48.9) ngEq*h/mL	0.362 (31.7) ngEq/mL	t ½ [2, 5]: 9.97 (43.6) h; T max [2, 6]: 3.25 (1.0–6.0) h
O=C1CCC(N2C(=O)c3ccccc3C2=O)C(=O)N1 (stereo not drawn) [Thalidomide, thalidomide]	–	–	–	–	–	–	–	–	–	–	–	Percent dose excreted in human urine, Hydrolysis products ([4]; thalidomide): 87.2%; Percent dose excreted in human urine, Metabolites (oxidative and conjugative) ([4]; thalidomide): Trace; Percent dose excreted in human urine, Parent ([4]; thalidomide): 1.8%; Percent dose excreted in human urine, Total ([4]; thalidomide): 91.9%; Percent dose excreted in human urine, Total ([4]; thalidomide, listed as thalidomide): > 90%
Nc1c(O[C@@H]2O[C@H](C(=O)O)[C@@H](O)[C@H](O)[C@H]2O)ccc2c1C(=O)N(C1CCC(=O)NC1=O)C2=O (stereo partly drawn) [Metabolite M12]	–	–	–	–	–	17% and 17.1%	4.6%	4.59	8.90 (20.9) ngEq*h/mL	10.1 (30.2) ngEq*h/mL	0.664 (23.5) ngEq/mL	t ½ [2, 5]: 9.06 (18.7) h; T max [2, 6]: 2.5 (1.0–6.0) h
Nc1cccc2c1C(=O)N([C@H]1CCC(=O)NC1=O)C2=O (single isomer, unassigned) [S-enantiomer]	–	–	–	–	–	–	–	–	–	–	–	C max [3]: 6.78 ± 1.99 ng/mL; AUC0−t [3]: 66.9 ± 34.1 ng·h/mL; AUC0−∞ [3]: 96.4 ± 58.2 ng·h/mL; t ½ [3]: 8.8 ± 4.5 h; T max [3]: 3.0 (1.0–6.0) h
Nc1cccc2c1CN(C1CCC(=O)NC1=O)C2=O (stereo not drawn) [Lenalidomide, lenalidomide]	–	–	–	–	–	–	–	–	–	–	–	Percent dose excreted in human urine, Metabolites (oxidative and conjugative) ([4]; lenalidomide): 5.3%; Percent dose excreted in human urine, Parent ([4]; lenalidomide): 81.7%; Percent dose excreted in human urine, Total ([4]; lenalidomide): 90.3%; Percent dose excreted in human urine, Parent [4, 7]: > 80%; Percent dose excreted in human urine, Total [4, 7]: > 90%
Nc1cccc(C(=O)O)c1C(=O)O [Metabolite M2, 3-Aminophthalic acid]	–	–	–	–	–	1.4%	1.7%	1.71	3.31 (28.4) ngEq*h/mL	4.27 (12.7) ngEq*h/mL	0.238 (36.3) ngEq/mL	Tmax ([2]; human, oral, 2 mg, plasma, radiochromatography, median and range): 6 h; half-life ([2]; male, human, plasma, oral, 2 mg, plasma, radiochromatography, geometric mean (%CV), read-out: t ½ (converted)): 13.2 h
